The values that follow come from PMC12516812 (RSC Advances, 2025).

Molecules are shown by their SMILES.

The test system of this experiment is MCF-7, U87, PANC-1 and A549. Briefly: MTT cytotoxicity assay, average over all tested cancer cell lines. It counts as cell-based. The note with it: Homo sapiens, 72 h, read-out: average IC50 against all tested cell lines.

Consider `CC1=CC(=O)C(C(C)C)=CC1=O` [TQ, Thymoquinone], for which the IC50 is about 32 µM.
